For one series, the system named is MDCK cells. Format: cell-based, Canine. As to the method: We used TGBz T34 to further isolate the efflux process of PGE2. […] The intracellular concentrations of PGE2 at different time points were calculated by dividing the total amount of intracellular PGE2 on the dish by the total volume of cells, based on cell number counts and published individual cell volume (Schneider et al., 2000; Hill et al., 2004). Since the addition of inhibitor involved removing extracellular tracer PGE2, the intracellular PGE2 concentration at the point of inhibitor addition approximates the outwardly-directed PGE2 gradient.
This linearity held true even when the intracellular PGE2 concentration was extended to almost 800 nM, i.e. 10 fold the Km of PGT for PGE2 (data not shown). From the slope of the relationship, we generated a range of permeability coefficients for PGE2 efflux of 1.2 to 5.3×10^−6 cm/sec, based on the range of MDCK cell volumes reported in the literature (Schneider et al., 2000; Hill et al., 2004). […] The ratio of the influx-to-efflux permeability coefficients was thus in the range 2.7 to 117.

In series [1] the target is T1, prostaglandin transporter (PGT) (Rattus norvegicus, UniProt Q00910).
T1 construct: GFP; expressed in transfected cells
Nature of the series: PGE2 uptake by MDCK cells stably expressing PGT. Format: cell-based. Conditions: for inhibition at 5 µM: MDCK, read-out: % Inhib. at 5 μM. The protocol:
MDCK or 3T3 cells were seeded at 15-20% confluence on 24-well plates. The day on which the cells were seeded was considered day 1. PGE2 uptake experiments were conducted on day 4. All of the PGE2 uptake experiments were conducted at room temperature. On day 4, cells were washed twice with Waymouth buffer (135 mM NaCl, 13 mM H-Hepes, 13 mM Na-Hepes, 2.5 mM CaCl2, 1.2 mM MgCl2, 0.8 mM MgSO4, 5 mM KCl, and 28 mM D-glucose). Then 200 μL of Waymouth buffer containing [^3H]PGE2 was added to each well. At the designated time, the uptake of [^3H]PGE2 was stopped by aspiration of uptake buffer; this was followed by immediate washing twice with 500 μL of chilled Waymouth buffer. Cells were then lysed with 100 μL lysis buffer containing 0.25% SDS and 0.05 N NaOH. 1.5 mL of scintillation solution was added to each well, and intracellular [^3H]PGE2 was counted by MicroBeta Counter.
For preliminary screening of the compounds, 25 μL of Waymouth buffer containing small organic compounds were added to each well; this was immediately followed by the addition of 175 μL of Waymouth buffer containing [^3H]PGE2. In each well, the total volume of uptake medium was 200 μL. Organic compounds were first dissolved in DMSO and then diluted in Waymouth buffer. The percent inhibition of [^3H]PGE2 uptake by compounds was calculated as [(uptakevehicle−uptakeinhibitor)÷(uptakevehicle)]×100.
The initial velocities at various initial extracellular concentrations of PGE2 were determined from the PGE2 uptake in the first 2 minutes; these were linear over the time course of PGE2 uptake. Ki values were obtained by curve fitting the reciprocal of initial velocities of PGE2 uptake versus the reciprocal of extracellular PGE2 concentrations at various concentrations of the inhibitors. At low PGE2 concentrations, the extracellular concentrations were taken as ^3H labeled PGE2, which has a specific activity of 500 μCi/mol. At high concentrations of PGE2, a mixture of ^3H labeled and unlabeled PGE2 was made to a final specific activity of 25 μCi/mol.

Where [2] appears, read: Table 1, PGE2 uptake, MDCK cells expressing PGT.

SMILES strings stand for the structures. “Also recorded” adds a separate entry of the source.

For the molecule `CCCCC[C@H](O)/C=C/[C@H]1[C@H](O)CC(=O)[C@@H]1C/C=C\CCCC(=O)O` [PGE2, prostaglandin E2], in the series on MDCK cells, the “permeability coefficient for PGE2 efflux” value is reported as 1.2-5.3 ×10^−6 cm/sec, the “permeability coefficient for PGE2 influx (by simple diffusion)” value came out at 0.45 ×10⁻⁶ cm/s and the “ratio of the influx-to-efflux permeability coefficients” value was 2.7-117.

On to `CCCNc1nc(NCCOCCOCCNC(=O)c2ccccc2)nc(Nc2ccc(C(=O)NCCOCCOCCN=[N+]=[N-])cc2)n1` [T03A], for which, in series [1], the inhibition at 5 µM is 54%.

With `CCCCCCCNc1nc(NCCOCCOCCNC(=O)c2ccccc2)nc(Nc2ccc(C(=O)NCCOCCOCCN=[N+]=[N-])cc2)n1` [T07A], in series [1], the inhibition at 5 µM was 74%.

As for `CC(C)CCNc1nc(NCCOCCOCCNC(=O)c2ccccc2)nc(Nc2ccc(C(=O)NCCOCCOCCN=[N+]=[N-])cc2)n1` [T08A], the inhibition at 5 µM in series [1] came to 64%.

On to `[N-]=[N+]=NCCOCCOCCNC(=O)c1ccc(Nc2nc(NCCOCCOCCNC(=O)c3ccccc3)nc(NCc3ccccc3)n2)cc1` [T14A], for which the inhibition at 5 µM in series [1] was 56%.

In the case of `[N-]=[N+]=NCCOCCOCCNC(=O)c1ccc(Nc2nc(NCCOCCOCCNC(=O)c3ccccc3)nc(NCCc3ccc(F)cc3)n2)cc1` [T18A], the inhibition at 5 µM in series [1] is 76%.

As to `[N-]=[N+]=NCCOCCOCCNC(=O)c1ccc(Nc2nc(NCCCc3ccccc3)nc(NCCOCCOCCNC(=O)c3ccccc3)n2)cc1` [T21A], the inhibition at 5 µM in series [1] worked out at 72%.

For the molecule `[N-]=[N+]=NCCOCCOCCNC(=O)c1ccc(Nc2nc(NCCCCc3ccccc3)nc(NCCOCCOCCNC(=O)c3ccccc3)n2)cc1` [T22A], the inhibition at 5 µM in series [1] was 72%.

For `[N-]=[N+]=NCCOCCOCCNC(=O)c1ccc(Nc2nc(NCCOCCOCCNC(=O)c3ccccc3)nc(Nc3ccc(F)cc3)n2)cc1` [T25A], the inhibition at 5 µM in series [1] was 82%. In series [1] (Table 2), this molecule gave a Ki of 3.9 µM.

As to `[N-]=[N+]=NCCOCCOCCNC(=O)c1ccc(Nc2nc(NCCOCCOCCNC(=O)c3ccccc3)nc(Nc3ccccc3)n2)cc1` [T28A], in series [1], the inhibition at 5 µM was 84%. The inhibition constant Ki in series [1] (Table 2) turned out to be 3.6 µM.

Regarding `[N-]=[N+]=NCCOCCOCCNC(=O)c1ccc(Nc2nc(NCCOCCOCCNC(=O)c3ccccc3)nc(NCCc3ccccc3)n2)cc1` [T34], the Ki in series [1] (0 min pre-incubation, separate experiments) worked out at 1.22 µM; in series [1] (10 min pre-incubation), 1.63 µM; in series [1] (20 min pre-incubation), 1.41 µM; in series [1] (setting [2]), 3.7 ± 0.2 µM; in series [1] (Table 2) it was 3.7 µM; in series [1] (double-reciprocal plots, PGE2 varied at 0, 3, 6 μM inhibitor) it was 3.7 ± 0.2 µM. Also, the “intracellular PGE2 after addition of inhibitor at peak level” value in series [1] (25 μM added at 9 minutes) is on record as “rapid depletion of intracellular PGE2”. The “time for intracellular PGE2 to fall to baseline” value in series [1] (25 μM added at peak (9 minutes)) was at most 5 min. Moreover, the “inhibition of PGE2 transport by PGT” value in series [1] (25 μM, added at the beginning of uptake, listed as TGBz T34) is given as “overshoot phenomenon completely disappeared; also recorded: full inhibition”. Also, in series [1], the inhibition at 5 µM amounted to 84%. In addition, the mode of inhibition entry in series [1] (double reciprocal analysis) was “competitive inhibitor”.

`[N-]=[N+]=NCCOCCOCCNC(=O)c1ccc(Nc2nc(NCCOCCOCCNC(=O)c3ccccc3)nc(NCCc3ccc(O)cc3)n2)cc1` [T41]: in series [1], the inhibition at 5 µM was found to be 65%. In addition, the inhibition constant (Ki) amounted to 6.2 ± 0.7 µM in series [1] (setting [2]) and 6.2 µM in series [1] (Table 2).

These data come from patent publication US9144573B2, “Prostaglandin transporter inhibitors” (Albert Einstein College of Medicine of Yeshiva University, priority 2006, dated 2015).
